Data on six compounds can be found in US4698327A, “Novel glycopeptide derivatives” (priority 1986, dated 1987).

The test system of test [1] is Staphylococcus aureus S13E. The test is classed as cell-based. To be noted: agar dilution. Background: Agar dilution tests growth on a series of plates holding different concentrations.
Test [2] has as its system Streptococcus pneumoniae Park 1. In kind it is cell-based. To be noted: agar dilution.
For test [3], the system named is Staphylococcus aureus X400. The test is described as follows: MIC, standard agar-dilution assay. The test is classed as cell-based.
The test system of another test is Streptococcus pneumoniae. To be noted: Streptococcus pneumoniae infection in mice; two doses, administered subcutaneously.
Test [4] concerns Streptococcus sp. group D 2041. The test can be described thus: MIC, standard agar-dilution assay. The test is classed as cell-based.
In test [5] the test system is Staphylococcus aureus NRRL B313. To be noted: agar dilution.
In test [6] the test system is Streptococcus faecium ATCC 9790. The test can be described thus: MIC, standard agar-dilution assay. The test is classed as cell-based.
In test [7] the test system is Klebsiella pneumoniae X68. The test is described as follows: MIC, standard agar-dilution assay. In kind it is cell-based.
Test [8] deals with Haemophilus influenzae 76. The test can be described thus: MIC, standard agar-dilution assay. In kind it is cell-based.
A further test has as its system Staphylococcus aureus. To be noted: Staphylococcus aureus infection in mice; two doses, administered subcutaneously.
In another test the test system is Escherichia coli EC14. The test can be described thus: MIC, standard agar-dilution assay. The test is classed as cell-based.
For test [9], the system named is Streptococcus pyogenes C203. The test is described as follows: MIC, standard agar-dilution assay. In kind it is cell-based.
Test [10] deals with Staphylococcus epidermidis EPI1. The test is classed as cell-based. The following applies: agar dilution.
Test [11] deals with Klebsiella pneumoniae KAE. The test can be described thus: MIC, standard agar-dilution assay. In kind it is cell-based.
Another test relates to Escherichia coli N10. The test is described as follows: MIC, standard agar-dilution assay. The test is classed as cell-based.
For another test, the system named is Streptococcus pyogenes. To be noted: Streptococcus pyogenes infection in mice; two doses, administered subcutaneously.
A further test concerns Escherichia coli TEM. The test is described as follows: MIC, standard agar-dilution assay. The test is classed as cell-based.
Test [12] deals with Haemophilus influenzae C.L. The test is described as follows: MIC, standard agar-dilution assay. In kind it is cell-based.
Test [13] has as its system Staphylococcus aureus V41. The test can be described thus: MIC, standard agar-dilution assay. The test is classed as cell-based.
In test [14] the test system is Klebsiella pneumoniae X26. The test can be described thus: MIC, standard agar-dilution assay. The test is classed as cell-based.
Test [15] relates to Staphylococcus epidermidis 222. The test can be described thus: MIC, standard agar-dilution assay. The test is classed as cell-based.

Converted amounts (≈) assume the structure as drawn.

In the case of `CCCCCCCCCCCCNC1(C)CC(OC2C(Oc3c4cc5cc3Oc3ccc(cc3Cl)C(O)C3NC(=O)C(NC(=O)C5NC(=O)C(CC(N)=O)NC(=O)C(NC(=O)C(CC(C)C)NC)C(O)c5ccc(c(Cl)c5)O4)c4ccc(O)c(c4)-c4c(O)cc(O)cc4C(C(=O)O)NC3=O)OC(CO)C(O)C2O)OC(C)C1O` (stereo not drawn) [Compound 1, N^van --(n-dodecyl)vancomycin], the MIC in test [1] is 0.25 mg/L (≈ 0.155 µM); in test [2], 0.25 mg/L (≈ 0.155 µM); in [3], 0.25 mg/L (≈ 0.155 µM); in [4], 0.125 mg/L (≈ 0.0773 µM); in [5] it was 0.25 mg/L (≈ 0.155 µM); in test [6], 0.25 mg/L (≈ 0.155 µM). Further, the MIC in [7] is over 128 mg/L; in test [8], over 128 mg/L; against Escherichia coli EC14 it was over 128 mg/L; in test [9] it was 0.125 mg/L (≈ 0.0773 µM); in test [10], 0.5 mg/L (≈ 0.309 µM); in [11], over 128 mg/L. Besides, the MIC in the test on Escherichia coli N10 is over 128 mg/L; against Escherichia coli TEM, over 128 mg/L; in test [12], over 128 mg/L; in test [13] it was 0.25 mg/L (≈ 0.155 µM); in test [14] it was over 128 mg/L. The figures for the ED50 with Streptococcus pneumoniae, in the test with Staphylococcus aureus and in the test with Streptococcus pyogenes were 0.42 mg/kg/2, over 5 mg/kg/2 and 0.31 mg/kg/2, respectively.
As for `CCCCCCCCCCNC1(C)CC(OC2C(Oc3c4cc5cc3Oc3ccc(cc3Cl)C(O)C3NC(=O)C(NC(=O)C5NC(=O)C(CC(N)=O)NC(=O)C(NC(=O)C(CC(C)C)NC)C(O)c5ccc(c(Cl)c5)O4)c4ccc(O)c(c4)-c4c(O)cc(O)cc4C(C(=O)O)NC3=O)OC(CO)C(O)C2O)OC(C)C1O` (stereo not drawn) [Compound 2, N^van -(n-decyl)vancomycin], the MIC in test [1] is 0.25 mg/L (≈ 0.157 µM); in test [2], 0.125 mg/L (≈ 0.0786 µM); in test [3], 0.25 mg/L (≈ 0.157 µM); in test [4], 0.25 mg/L (≈ 0.157 µM); in test [15], 0.25 mg/L (≈ 0.157 µM); in test [6], 0.25 mg/L (≈ 0.157 µM). For the same compound, the MIC was over 128 mg/L in test [7]; 128 mg/L (≈ 80.5 µM) in [8]; over 128 mg/L with Escherichia coli EC14; 0.06 mg/L (≈ 0.0377 µM) in [9]; 0.25 mg/L (≈ 0.157 µM) in test [10]; over 128 mg/L in [11]. The MIC was over 128 mg/L against Escherichia coli N10; over 128 mg/L in the test on Escherichia coli TEM; 128 mg/L (≈ 80.5 µM) in [12]; 0.25 mg/L (≈ 0.157 µM) in test [13]; over 128 mg/L in test [14]. Further, the values for the ED50 in the test on Streptococcus pneumoniae, in the test on Staphylococcus aureus and in the test with Streptococcus pyogenes were 0.51 mg/kg/2, 1.8 mg/kg/2 and 1.6 mg/kg/2, respectively.
On to `CCCCCCCCCCN(C)C(CC(C)C)C(=O)NC1C(=O)NC(CC(N)=O)C(=O)NC2C(=O)NC3C(=O)NC(C(=O)NC(C(=O)O)c4cc(O)cc(O)c4-c4cc3ccc4O)C(O)c3ccc(c(Cl)c3)Oc3cc2cc(c3OC2OC(CO)C(O)C(O)C2OC2CC(C)(N)C(O)C(C)O2)Oc2ccc(cc2Cl)C1O` (stereo not drawn) [Compound 3, N^leu --(n-decyl)vancomycin], for which the MIC in test [1] was 0.5 mg/L (≈ 0.315 µM); in test [2], 0.5 mg/L (≈ 0.315 µM); in test [3], 0.5 mg/L (≈ 0.315 µM); in test [4], 1 mg/L (≈ 0.629 µM); in [5], 0.5 mg/L (≈ 0.315 µM); in [15] it was 1 mg/L (≈ 0.629 µM). Besides, the MIC was 0.5 mg/L (≈ 0.315 µM) in test [6]; over 128 mg/L in test [7]; over 128 mg/L in test [8]; over 128 mg/L in the test with Escherichia coli EC14; 0.5 mg/L (≈ 0.315 µM) in test [9]; 2 mg/L (≈ 1.26 µM) in test [10]. The MIC in test [11] was over 128 mg/L; with Escherichia coli N10 it was over 128 mg/L; against Escherichia coli TEM, over 128 mg/L; in test [12], 128 mg/L (≈ 80.5 µM); in test [13], 0.5 mg/L (≈ 0.315 µM); in [14], over 128 mg/L. Further, the ED50 is 3.6 mg/kg/2 with Streptococcus pneumoniae, over 5 mg/kg/2 in the test with Staphylococcus aureus and 4.6 mg/kg/2 with Streptococcus pyogenes.
As to `CCCCCCCCCNC1(C)CC(OC2C(Oc3c4cc5cc3Oc3ccc(cc3Cl)C(O)C3NC(=O)C(NC(=O)C5NC(=O)C(CC(N)=O)NC(=O)C(NC(=O)C(CC(C)C)NC)C(O)c5ccc(c(Cl)c5)O4)c4ccc(O)c(c4)-c4c(O)cc(O)cc4C(C(=O)O)NC3=O)OC(CO)C(O)C2O)OC(C)C1O` (stereo not drawn) [Compound 5, N^van --(n-nonyl)vancomycin], the MIC is 0.25 mg/L (≈ 0.159 µM) in test [1]; 0.25 mg/L (≈ 0.159 µM) in test [2]; 0.25 mg/L (≈ 0.159 µM) in [3]; 0.5 mg/L (≈ 0.317 µM) in test [4]; 0.25 mg/L (≈ 0.159 µM) in [5]; 0.25 mg/L (≈ 0.159 µM) in [15]. Besides, the MIC in test [6] was 0.25 mg/L (≈ 0.159 µM); in test [7], over 128 mg/L; in test [8] it was 64 mg/L (≈ 40.6 µM); with Escherichia coli EC14, over 128 mg/L; in [9], 0.125 mg/L (≈ 0.0793 µM); in test [10], 0.5 mg/L (≈ 0.317 µM). In addition, the MIC in test [11] was over 128 mg/L; in the test with Escherichia coli N10, over 128 mg/L; against Escherichia coli TEM, over 128 mg/L; in [12] it was 64 mg/L (≈ 40.6 µM); in test [13], 0.25 mg/L (≈ 0.159 µM); in test [14] it was over 128 mg/L. In addition, the ED50 was found to be 0.81 mg/kg/2 with Streptococcus pneumoniae, 2.9 mg/kg/2 in the test on Staphylococcus aureus and 0.56 mg/kg/2 in the test with Streptococcus pyogenes.
Consider `CCCCCCCCNC1(C)CC(OC2C(Oc3c4cc5cc3Oc3ccc(cc3Cl)C(O)C3NC(=O)C(NC(=O)C5NC(=O)C(CC(N)=O)NC(=O)C(NC(=O)C(CC(C)C)NC)C(O)c5ccc(c(Cl)c5)O4)c4ccc(O)c(c4)-c4c(O)cc(O)cc4C(C(=O)O)NC3=O)OC(CO)C(O)C2O)OC(C)C1O` (stereo not drawn) [Compound 7, N^van --(n-octyl)vancomycin], for which the MIC in test [1] is 0.25 mg/L (≈ 0.16 µM); in test [3], 0.25 mg/L (≈ 0.16 µM); in test [4], 0.5 mg/L (≈ 0.32 µM); in test [5], 0.25 mg/L (≈ 0.16 µM); in [15], 0.5 mg/L (≈ 0.32 µM); in [6], 0.25 mg/L (≈ 0.16 µM). Besides, the MIC in [7] is over 128 mg/L; in test [8], 32 mg/L (≈ 20.5 µM); in the test on Escherichia coli EC14, over 128 mg/L; in test [9] it was 0.125 mg/L (≈ 0.0801 µM); in test [10], 1 mg/L (≈ 0.64 µM); in test [11] it was over 128 mg/L. Further, the MIC in the test with Escherichia coli N10 is over 128 mg/L; with Escherichia coli TEM it was over 128 mg/L; in test [12] it was 32 mg/L (≈ 20.5 µM); in test [13] it was 0.25 mg/L (≈ 0.16 µM); in test [14], over 128 mg/L. Also, the ED50 is listed as 0.44 mg/kg/2 in the test on Streptococcus pneumoniae, 3.4 mg/kg/2 with Staphylococcus aureus and 0.98 mg/kg/2 in the test on Streptococcus pyogenes.
Turning to `CCCCCCCCCCNC1(C)CC(OC2C(Oc3c4cc5cc3Oc3ccc(cc3Cl)C(O)C(NC(=O)C(CC(C)C)[N+](C)(C)C)C(=O)NC(CC(N)=O)C(=O)NC5C(=O)NC3C(=O)NC(C(=O)NC(C(=O)[O-])c5cc(O)cc(O)c5-c5cc3ccc5O)C(O)c3ccc(c(Cl)c3)O4)OC(CO)C(O)C2O)OC(C)C1O` (stereo not drawn) [Compound 124, N^van --(n-decyl)-M43A], the MIC in [1], in [2], in test [3], in test [4], in test [5] and in test [15] was 0.5 mg/L (≈ 0.309 µM) in each case. The MIC was 0.5 mg/L (≈ 0.309 µM) in [6]; over 64 mg/L in test [7]; over 64 mg/L in test [8]; 64 mg/L (≈ 39.6 µM) with Escherichia coli EC14; 0.25 mg/L (≈ 0.155 µM) in [9]; 1 mg/L (≈ 0.618 µM) in [10]. Besides, the MIC in test [11] is over 64 mg/L; in the test on Escherichia coli N10, over 64 mg/L; in the test with Escherichia coli TEM, over 64 mg/L; in [12], over 64 mg/L; in [13] it was 0.5 mg/L (≈ 0.309 µM); in [14], over 64 mg/L.
